Test results reported in US20230190777A1, “MAMMALIAN MILK OLIGOSACCHARIDES PREVENT VIRAL INFECTION OF HUMAN EPITHELIUM” (The Regents of the University of California, priority 2020, published 2023).
Read-outs that look alike come from different tables or passages of the source.

How the values were obtained:
[1] = tested on: human coronavirus (HCoV-229E); type: cell-based; conditions: A549 cells, MOI 0.01, three days post infection (FIG. 3)
[2] = tested on: human coronavirus (HCoV-229E); type: cell-based; conditions: HMO 2 mg/ml or 5 mg/ml for 16 hours before HCoV-229E (MOI 0.01), 48 hours of viral infection (FIG. 4)
[3] = tested on: Type I (IFN-α1, IFN-β1) and Type III interferons (IFN-λ1, IFN-λ2, and IFN-λ3); assay: Host-cell interferon response during HCoV-229E infection of A549 cells (real-time PCR); type: cell-based, human; conditions: HMO 2 mg/ml pre-incubated 16 hours, MOI 0.01, 24 hours post infection (FIG. 6)
[4] = tested on: human coronavirus (HCoV-229E); assay: HCoV-229E infection of A549 cells after HMO pre-incubation (imaging of adherent cells); type: cell-based; conditions: HMO 2 mg/ml pre-incubated 16 hours, MOI 0.01, up to three days post-infection (FIG. 2)
Method: Monkey kidney epithelial (MK2-LLC) cells or human alveolar epithelial (A549) cells were seeded in 12-well plates at 1E5 cells per well.
24-hours post incubation, cells were washed with serum-free media and incubated with the particular HMO at 2 mg/ml final concentration.
16-hours post HMO incubation, the particular virus (for MK2-LLC cells this was Tulane virus, at a multiplicity of infection (MOI) of 0.001; for A549 cells this was human coronavirus (HCoV-229E), at an MOI of 0.01) was added and infection was allowed to proceed.
Images of adherent (live) cells were recorded two-days post infection after aspirating and washing cells with PBS. All wells were washed on Day 3 prior to imaging.
It was hypothesized that HMOs enhance cellular adhesion, cell structural integrity and modulate tight junction proteins as a generalized function regardless of the organ from which the epithelial cells are derived, and this function in turn alters the response to pathogenic challenges. […] As proof-of-concept, human alveolar epithelial (A549) cells were incubated in the presence of physiological levels of an HMO (2′-FL or 3′-SL) for 16 hours and infected the cells with a human coronavirus (HCoV-229E).

Tulane virus = Tulane virus infection of MK2-LLC cells after HMO pre-incubation (imaging of adherent cells); type: cell-based, monkey; conditions: HMO 2 mg/ml pre-incubated 16 hours, MOI 0.001, compared to cells in the absence of an HMO (FIG. 1)
[5] = HMO 2 mg/ml added simultaneously with HCoV-229E ('During')
[6] = HMO 2 mg/ml added two hours post viral adsorption ('After')

Compound	loss of adherent cells, virus-mediated loss of cell viability and cytopathogenic effects [1, 5]	loss of adherent cells, virus-mediated loss of cell viability and cytopathogenic effects [1, 6]	A549 cell viability (live cell fluorescence, Calcein-AM) [2]	Type I and Type III interferon response (fold-induction) during HCoV-229E infection [3]	A549 epithelial cell morphology after HCoV-229E infection [4]	cellular adherence and cell viability in the presence of Tulane virus (Tulane virus)
CC(=O)N[C@H]1[C@H]([C@H](O)[C@H](O)CO)O[C@@](O[C@H]2[C@@H](O)[C@@H](CO)O[C@@H](O[C@H]3[C@H](O)[C@@H](O)C(O)O[C@@H]3CO)[C@@H]2O)(C(=O)O)C[C@@H]1O (stereo partly shown) [3′-SL, 3′-sialyllactose]	reduced the loss of adherent cells, the virus-mediated loss of cell viability and the cytopathogenic effects	reduced the loss of adherent cells, the virus-mediated loss of cell viability and the cytopathogenic effects	retain viability	dramatically attenuated	little or no change in A549 epithelial cell morphology	increased cellular adherence and cell viability
2′-Fucosyllactose [2′-FL]	reduced the loss of adherent cells, the virus-mediated loss of cell viability and the cytopathogenic effects	reduced the loss of adherent cells, the virus-mediated loss of cell viability and the cytopathogenic effects	retain viability	dramatically attenuated	little or no change in A549 epithelial cell morphology	increased cellular adherence and cell viability
Lacto-N-fucopentaose I [LNFP I]	–	–	–	–	–	increased cellular adherence and cell viability
